According to article PMC10223356, “Tetrasubstituted Pyrrole Derivative Mimetics of Protein–Protein Interaction Hot-Spot Residues: A Promising Class of Anticancer Agents Targeting Melanoma Cells” (Molecules, 2023):
≈ marks a conversion by molar mass, not a printed value.

How the values were obtained:
[1] = Solubility assay in PBS by UV light scattering (precipitation point); type: physicochemical; conditions: for solubility at 1 min: PBS (phosphate-buffered saline), aqueous buffer, kinetic from dmso stock, PBS solution pH = 7.4, 37 °C, mean ± SEM (n = 3)
Description: The solubility of all compounds was evaluated in a PBS solution (phosphate-buffered saline; Sigma-Aldrich, Merck KGaA, Darmstadt, Germany, pH = 7.4) by means of UV spectroscopy.
For each compound, the precipitation point was quantified measuring the increasing of the UV absorption of PBS in the range of 600–800 nm after successive additions of aliquots of a DMSO solution at specific concentration. Because of the absence of bands in the selected UV region, the increase in absorption is due to light scattering caused by the formation of particulate in the PBS. UV absorption data were graphically reported vs. μL of the added DMSO solution (x-axis), and the precipitation point was identified as the intersect point of the bilinear fitted curve. The x coordinate of the intersect point corresponded to the microlitres of DMSO added to PBS (1.4 mL) when the precipitation occurred, from which the concentration of the molecule in PBS at the precipitation point is readily calculated.
The solubility of each molecule in PBS was quantified measuring the UV scattering in the range of 600–800 nm (JASCO UV-530 spectrophotometer, equipped with ETC-505 T temperature controller). DMSO solutions of 1, 9a, 9b, 9c, 9d, 9e, 9f, ±10b, and nutlin-3a were used at a final concentration of 2.6 mM, whereas those of 9g, 9h, and 9i were used at 1.0 mM. A total of 1400 µL of degassed PBS was placed in a quartz cuvette (o.l. 0.5 cm), equilibrated 5 min at 37 °C, and then titrated by 7–10 successive additions of 0.5 µL or 0.3 µL from the DMSO solution. Each titration was performed without removing the cuvette from the UV cell and, after each addition, the solution was equilibrated 1 min a 37 °C under gently stirring before the acquisition of the UV data. For each molecule, the solubility was expressed as the mean ± SEM (n = 3).

[2] = tested on: human colorectal carcinoma HCT-116 cells; experiment: Cell survival index (MTT + cell count) bioscreen, HCT-116; type: cell-based; conditions: HCT-116, 48 h, human colon cancer cell line, 48 h of incubation, mean ± SEM (n = 30)
Description: (§1) Cell growth inhibition activity of compounds 1, 9a–i, 10a,b, and the positive control nutlin-3a was evaluated following 48 h of incubation with increasing concentrations of the compounds (from 1.5 to 25 µM) in human cancer (A375 and HCT-116) and healthy (L6) cell lines. […] The evaluation of the “cell survival index” show a typical concentration-dependent sigmoid trend, achieving IC50 values in the low micromolar range (Figure S2).
(§2) Human epithelial melanoma A375 cells, human colorectal carcinoma HCT-116 cells, and normal rat L6 myoblast were grown in DMEM (Invitrogen, Paisley, UK) supplemented with 10% fetal bovine serum (FBS, Cambrex, Verviers, Belgium), L-glutamine (2 mM, Sigma, Milan, Italy), penicillin (100 units/mL, Sigma), and streptomycin (100 μg/mL, Sigma) and cultured in a humidified 5% carbon dioxide atmosphere at 37 °C, according to ATCC recommendations. A375 and HCT-116 were used as preclinical human cancer models in vitro, while rat L6 were used as control healthy cells.
(§3) The antiproliferative activity of 1, 9a–i, and 10a,b was investigated through the estimation of a “cell survival index”, arising from the combination of cell viability evaluation with cell counting, as previously reported. The cell survival index is calculated as the arithmetic mean between the percentage values derived from the MTT assay and the automated cell count. Cells were inoculated in 96-microwell culture plates at a density of 10^4 cells/well and allowed to grow for 24 h. The medium was then replaced with fresh medium and cells were treated for an additional 48 h with a range of concentrations (from 1.5 to 25 μM) of 1, 9a–i, and 10a,b. Using the same experimental procedure, cell cultures were also incubated with DMSO as negative controls (vehicle), as well as with cisplatin (cDDP) and nutlin-3a as positive controls for cytotoxic and antiproliferative effects, respectively. Cell viability was evaluated using the MTT assay procedure. Cell number was determined by TC20 automated cell counter (Bio-Rad, Milan, Italy), providing an accurate and reproducible total count of cells and a live/dead ratio in one step by a specific dye (trypan blue) exclusion assay. The calculation of the concentration required to inhibit the net increase in the cell number and viability by 50% (IC50) is based on plots of data (n = 6 for each experiment) and repeated five times (total n = 30). IC50 values were calculated from a dose–response curve by nonlinear regression using a curve-fitting program, GraphPad Prism 5.0, and are expressed as mean values ± SEM (n = 30) of five independent experiments.

[3] = tested on: human epithelial melanoma A375 cells; experiment: Cell survival index (MTT + cell count) bioscreen, A375; type: cell-based; conditions: for IC50: A-375, human melanoma cell line, 48 h of incubation, cell survival index, mean ± SEM (n = 30); for SI (selectivity index): SI = IC50 L6/IC50 A375
Description: as §1, §2, §3

[4] = tested on: normal rat L6 myoblast; experiment: Cell survival index (MTT + cell count) bioscreen, L6; type: cell-based; conditions: healthy rat myoblast cell line, 48 h of incubation, mean ± SEM (n = 30), read-out: L6 IC50
Description: as §1, §2, §3

[5] = tested on: human A375 melanoma cells; experiment: Apoptosis/Necrosis detection by fluorescence microscopy; type: cell-based; conditions: A375 cells incubated with IC50 concentrations
From the text: In order to confirm the possible activation of apoptosis, we performed fluorescence experiments to simultaneously monitor apoptotic and/or necrotic cells as well as deepen the biological effects on A375 triggered by exposure to the most bioactive derivatives under investigation (Figure 5).
Indeed, in apoptosis, PS is transferred to the outer leaflet of the plasma membrane. As a general indicator of the initial/intermediate stages of programmed cell death, the PS appearance on the cell surface can be detected as an apoptotic hallmark. Even in this circumstance, the results are very similar to those obtained with nutlin-3a.
The evaluation of apoptosis and/or necrosis induction after treatments in vitro was investigated by using the Apoptosis/Necrosis Detection kit (ab176749, Abcam, Discovery Drive, Cambridge Biomedical Campus, Cambridge, UK), which is optimized to simultaneously detect cell apoptosis (green), necrosis (red), and healthy cells (blue) by fluorescence microscopy analysis. […] As a universal indicator of the initial/intermediates stages of cell apoptosis, the appearance of PS on the cell surface can be detected before cytomorphological changes are observed. Thus, the phosphatidylserine (PS) early apoptotic sensor has green fluorescence (Ex/Em = 490/525 nm) upon binding to membrane PS. […]

[6] = DMSO solution 2.6 mM added to 1400 µL PBS
[7] = DMSO solution 1.0 mM added to 1400 µL PBS, Abs 640 nm

Structure (SMILES): Cc1ccc(Cn2c(C(=O)NCc3cccc(Cl)c3)cc(C(O)c3ccccc3)c2C)cc1 (racemic) [(±)10b, (±)N-(3-chlorobenzyl)-4-(hydroxy(phenyl)methyl)-5-methyl-1-(4-methylbenzyl)-1H-pyrrole-2-carboxamide]
- Volume of DMSO solution added to PBS at the precipitation point [1, 6]: 3,6 µL
- solubility at 1 min [1]: 6.7 ± 0.6 µM (≈ 3.08 µg/mL)
- IC50 [2]: 25 ± 5 µM
- IC50 [3]: 15 ± 5 µM
- SI (selectivity index) [3]: 3.6
- CC50 [4]: 54 ± 6 µM

Structure (SMILES): Cc1c(C(=O)c2ccccc2)cc(C(=O)NCc2cccc(Cl)c2)n1Cc1ccc(Cl)cc1 [compound 9a, 4-Benzoyl-N-(3-chlorobenzyl)-1-(4-chlorobenzyl)-5-methyl-1H-pyrrole-2-carboxamide]
- Volume of DMSO solution added to PBS at the precipitation point [1, 6]: 2,14 µL
- solubility at 1 min [1]: 3.9 ± 0.1 µM (≈ 1.86 µg/mL)
- IC50 [2]: 36.4 ± 8 µM
- IC50 [3]: 18 ± 4 µM
- SI (selectivity index) [3]: 2.7
- CC50 [4]: 48 ± 5 µM

Structure (SMILES): COc1ccc(Cn2c(C(=O)NCc3cccc(Cl)c3)cc(C(=O)c3ccccc3)c2C)cc1 [compound 9b, 4-Benzoyl-N-(3-chlorobenzyl)-1-(4-methoxybenzyl)-5-methyl-1H-pyrrole-2-carboxamide]
- Volume of DMSO solution added to PBS at the precipitation point [1, 6]: 1,7 µL
- solubility at 1 min [1]: 3.1 ± 0.2 µM (≈ 1.47 µg/mL)
- IC50 [2]: 46 ± 18 µM
- IC50 [3]: 24 ± 14 µM
- SI (selectivity index) [3]: 1.7
- CC50 [4]: 40 ± 5 µM

Structure (SMILES): Cc1c(C(=O)c2ccccc2)cc(C(=O)NCc2cccc(Cl)c2)n1Cc1ccc(F)cc1 [compound 9c, 4-Benzoyl-N-(3-chlorobenzyl)-1-(4-fluorobenzyl)-5-methyl-1H-pyrrole-2-carboxamide]
- Volume of DMSO solution added to PBS at the precipitation point [1, 6]: 2,1 µL
- solubility at 1 min [1]: 3.9 ± 0.2 µM (≈ 1.8 µg/mL)
- IC50 [2]: 55.9 ± 7 µM
- Activation of apoptosis (phosphatidylserine sensor, green fluorescence) [5]: consistent activation of apoptosis
- IC50 [3]: 13 ± 4 µM
- SI (selectivity index) [3]: 2.7
- CC50 [4]: 35 ± 4 µM

Structure (SMILES): Cc1ccc(Cn2c(C(=O)NCc3ccc(Cl)cc3)cc(C(=O)c3ccccc3)c2C)cc1 [compound 9d, 4-Benzoyl-N-(4-chlorobenzyl)-5-methyl-1-(4-methylbenzyl)-1H-pyrrole-2-carboxamide]
- Volume of DMSO solution added to PBS at the precipitation point [1, 6]: 1,67 µL
- solubility at 1 min [1]: 3.1 ± 0.2 µM (≈ 1.42 µg/mL)
- IC50 [2]: 35.4 ± 6 µM
- IC50 [3]: 15 ± 5 µM
- SI (selectivity index) [3]: 1.7
- CC50 [4]: 25 ± 6 µM

Structure (SMILES): Cc1c(C(=O)c2ccccc2)cc(C(=O)NCc2ccc(Cl)cc2)n1Cc1ccc(Cl)cc1 [compound 9e, 4-Benzoyl-N,1-bis(4-chlorobenzyl)-5-methyl-1H-pyrrole-2-carboxamide]
- Volume of DMSO solution added to PBS at the precipitation point [1, 6]: 1,93 µL
- solubility at 1 min [1]: 3.5 ± 0.3 µM (≈ 1.67 µg/mL)
- IC50 [2]: 34.6 ± 6 µM
- IC50 [3]: 23 ± 6 µM
- SI (selectivity index) [3]: 1.6
- CC50 [4]: 38 ± 2 µM

Structure (SMILES): Cc1c(C(=O)c2ccccc2)cc(C(=O)NCc2cccc(C(F)(F)F)c2)n1Cc1ccccc1 [compound 9f, 4-Benzoyl-1-benzyl-5-methyl-N-(3-(trifluoromethyl)-benzyl)-1H-pyrrole-2-carboxamide]
- Volume of DMSO solution added to PBS at the precipitation point [1, 6]: 1,41 µL
- solubility at 1 min [1]: 2.6 ± 0.1 µM (≈ 1.24 µg/mL)
- IC50 [2]: 28.4 ± 7 µM
- IC50 [3]: 27 ± 8 µM
- SI (selectivity index) [3]: 1.3
- CC50 [4]: 35 ± 7 µM

Structure (SMILES): CC(=O)c1cc(C(=O)NCc2cccc(Br)c2)n(Cc2ccc(C)cc2)c1-c1ccccc1 [compound 9g, 4-acetyl-N-(3-bromobenzyl)-1-(4-methylbenzyl)-5-phenyl-1H-pyrrole-2-carboxamide]
- Volume of DMSO solution added to PBS at the precipitation point [1, 7]: 2,1 µL
- solubility at 1 min [1]: 1.5 ± 0.2 µM (≈ 0.752 µg/mL)
- IC50 [2]: 34 ± 6 µM
- IC50 [3]: 18 ± 5 µM
- SI (selectivity index) [3]: 3.9
- CC50 [4]: 71 ± 5 µM

Structure (SMILES): Cc1ccc(Cn2c(C(=O)NCc3cccc(Cl)c3)cc(C(=O)c3ccc(C)cc3)c2C)cc1 [compound 9h, N-(3-chlorobenzyl)-5-methyl-4-(4-methylbenzoyl)-1-(4-methylbenzyl)-1H-pyrrole-2-carboxamide]
- Volume of DMSO solution added to PBS at the precipitation point [1, 7]: 0.84 µL
- solubility at 1 min [1]: < 1 µM
- IC50 [2]: 56.3 ± 15 µM
- IC50 [3]: 24 ± 6 µM
- SI (selectivity index) [3]: 1.7
- CC50 [4]: 42 ± 7 µM

Structure (SMILES): COc1ccc(C(=O)c2cc(C(=O)NCc3cccc(Cl)c3)n(Cc3ccc(C)cc3)c2C)cc1 [compound 9i, N-(3-chlorobenzyl)-4-(4-methoxybenzoyl)-5-methyl-1-(4-methylbenzyl)-1H-pyrrole-2-carboxamide]
- Volume of DMSO solution added to PBS at the precipitation point [1, 7]: 1,0 µL
- solubility at 1 min [1]: < 1 µM
- IC50 [2]: > 100 µM
- IC50 [3]: 16 ± 6 µM
- SI (selectivity index) [3]: 4.2
- CC50 [4]: 66 ± 5 µM

Structure (SMILES): Cc1c(C(=O)c2ccccc2)cc(C(=O)NCc2cccc(Cl)c2)n1Cc1ccc(N)cc1 [compound 10a, 1-(4-aminobenzyl)-4-benzoyl-N-(3-chlorobenzyl)-5-methyl-1H-pyrrole-2-carboxamide]
- solubility at 1 min [1]: 10.5 ± 0.1 µM (≈ 4.81 µg/mL)
- Solubility fold higher than that of 1 ([1]; PBS pH 7.4, ratio of DMSO solution volumes at the precipitation points): 2.8 fold
- IC50 [2]: 41.3 ± 6 µM
- Activation of apoptosis (phosphatidylserine sensor, green fluorescence) [5]: consistent activation of apoptosis
- IC50 [3]: 10 ± 4 µM
- SI (selectivity index) [3]: 5.6
- CC50 [4]: 55 ± 7 µM

Structure (SMILES): COc1ccc(C2=N[C@H](c3ccc(Cl)cc3)[C@H](c3ccc(Cl)cc3)N2C(=O)N2CCNC(=O)C2)c(OC(C)C)c1 [nutlin-3a, reference compound]
- solubility at 1 min [1]: 2.4 ± 0.2 µM (≈ 1.4 µg/mL)
- IC50 [2]: 12.5 ± 5 µM
- IC50 [3]: 15 ± 3 µM
- SI (selectivity index) [3]: 1.2
- CC50 [4]: 18 ± 4 µM
